Measured values as given in patent US9855277B2, “Use of 5H-dibenz/b,f/azepine-5-carboxamide derivatives for treating fibromyalgia” (BIAL—PORTELA & CA, S.A., priority 2009, dated 2018).

Legend:
Type in all cases: in vivo
Mice (NMRI) = assay: Formalin paw test; details: 300 mg/kg p.o.
Procedure: The method, which detects analgesic activity, follows that described by Wheeler-Aceto et al (see […]-ACETO, H. & A., C. (1991), “Standardization of the rat paw formalin test for the evaluation of analgesics”, Psychopharmacology, 104, 35-44). Mice (NMRI) were given an intraplantar injection of 5% formalin (25 μl) into the posterior left paw. […] The time spent licking was counted for 15 minutes, beginning 15 minutes after injection of formalin. 10 mice were studied per group. The test was performed blind. ESL and carbamazepine (CBZ) were tested at the doses of 10, 30, 100 and 300 mg/kg p.o., and oxcarbazepine (OXC) and R-Lic were tested at the doses of 100 and 300 mg/kg p.o., administered 60 minutes before the test (i.e. 45 minutes before formalin), and compared with a vehicle control group in each experiment. Morphine (64 mg/kg p.o.), administered under the same experimental conditions, was used as reference substance.

[1] = Plasma bioanalysis in CCI mice after oral ESL; details: oral ESL 50-200 mg/kg
[2] = test system: mice with chronic constriction nerve injury (CCI); assay: Paw withdrawal threshold (von Frey filaments) in CCI mice; details: gabapentin 100 mg/kg p.o.
Procedure: The materials used were (as also indicated in FIGS. 1 and 2): • Vehicle: 0.5% hydroxy-propyl-methyl-cellulose (HPMC) in water, 5 ml/kg, p.o.; • 50 mg/kg, 100 mg/kg, 150 mg/kg and 200 mg/kg: ESL at 50, 100, 150 and 200 mg/kg, p.o.; • GP 100 mg/kg: gabapentin 100 mg/kg, p.o.
The potential analgesic effects of orally dosed ESL was investigated at doses of 50, 100, 150 and 200 mg/kg, on the paw withdrawal threshold (PWT) and these effects compared with those of the dose vehicle and gabapentin, the latter at 100 mg/kg, in a mouse model of chronic constriction nerve injury (CCI).
Each animal received a single oral dose of either ESL (50, 100, 150, or 200 mg/kg), or gabapentin (100 mg/kg in saline) or vehicle (5 ml/kg). Behavioural testing was then performed twice, at approximately 60 and 120 minutes post-dose, to investigate the effect of treatments.

For `NC(=O)N1c2ccccc2C=Cc2ccccc21` [CBZ, carbamazepine, reference compound], the “licking in the formalin test at 300 mg/kg” value (Mice (NMRI)) was “abolished licking”.

In the case of `NC(=O)N1c2ccccc2C[C@H](O)c2ccccc21` [eslicarbazepine], the “plasma concentrations vs dose of ESL” value [1] is reported as “positively correlated with the doses of ESL administered”.

In the case of `NCC1(CC(=O)O)CCCCC1` [gabapentin, reference compound], the “PWT in the contralateral limbs vs vehicle group” value ([2]; 2 hour after dosing, P<0.05) is reported as “significantly higher” and the PWT ([2]; positive control) is reported as “significantly increased PWT”.
